Patent US20030091975A1, “Multiple determinants for metabolic phenotypes” (priority 2001, published 2003)
Read-outs that look alike come from different tables or passages of the source. Marks after values point to notes of the source that are not given here.

Columns and labels:
[1] = 2 mg/kg, cited from earlier work
[2] = molecular target: μ-opiod receptor (Homo sapiens, UniProt P35372); settings: relative to morphine; cited from earlier work
[3] = cited from earlier work
[4] = tested on: 1,7-DMU-Ab; test: Competitive antigen ELISA, antibody specificity of 1,7-DMU-Ab; format: binding, rabbit; settings: ideal antibody specificity result hypothesized; 0 = no inhibition or no higher than 40% at 5×10^−3 M
Description: (§1) BSA, antibodies, Tween™ 20 and horse radish peroxidase are added to buffers and water just prior to use. Urine samples are usually collected four hours after drinking a cup of coffee (instant or brewed with approximately 100 mg of caffeine per cup) and stored at −20° C. as 1-mL aliquots in 1.5-mL microtubes. For the ELISA, the urine samples are diluted with isotonic sodium phosphate buffer, pH 7.5 (310 mosM) to give concentrations of caffeine, 1.7-DMX and 1,7-DMU no higher than 3×10^−6 M in the microtiter plate wells. Wells of the ELISA plate are washed with a Nunc-Immuno wash 12 washer. Sixteen milliliters of a solution of 6.6 μg ml^−1 of isolated IgG antibodies is prepared in a 100 mM sodium carbonate buffer, pH 9.6, and 150 μL of this solution is pipetted in each well of a microtiter plate using a eight channel pipet (Brinkmann Transferpette™-8 50-200 μL) and 200 μL Flex tips from Brinkmann). After coating the wells with antibodies at 4° C. for 20 hours, the wells are washed 3 times with the isotonic sodium phosphate buffer containing 0.05% Tween™ 20 (IPBT) and properly drained by inverting the plate and absorbing the liquid on to a piece of paper towel. Thirty milliliters of a solution of a IPBT solution containing 1% BSA is prepared and 150 μL of this solution is pipetted in each well using a eight channel pipet (Brinkmann Transferpette ™-8 50-200 μL) and 200 μL yellow tips (Sarstedt yellow tips for P200 Gilson Pipetman). After 3 hours at room temperature, the wells are washed 3 times with IPBT solution and drained. Samples of 400 μL for determination of caffeine, 1,7-DMX and 1,7-DMU are prepared in 1.5-mL microtubes using Sarstedt yellow tips and a P200 Gilson Pipetman. Then, 200 μL of each sample are pipetted in duplicate in a Falcon 96-well microtest tissue culture plate according to the pattern shown in FIG. 22, using Sarstedt yellow tips and a P200 Gilson Pipetman. Using an eight channel pipet (Brinkmann Transferpette™-8 50-200 μL) and changing the tips of the eight channel pipet (200μL Flex tips from Brinkmann) at each row, 150 μL of samples are transferred in the corresponding wells of a 96-well ELISA microtiter plate coated with antibodies. After the addition of the samples, the microtiter plates are covered and left standing at room temperature for 2 h. While the plate is left standing the substrate buffer without the hydrogen peroxide and o-phenylenediamine hydrochloride is prepared (25 mM citric acid and 50 mM sodium phosphate dibasic buffer, pH 5.0). The microtiter plate is washed 3 times with the IPBT solution and 3 times with a 0.05% Tween™ 20 solution and drained. Then, 50 μL of hydrogen peroxide and 40 mg of o-phenylenediamine are added to the substrate buffer. One hundred fifty microliters (150 μL) of the substrate buffer solution is then added to each well using a eight channel pipet (Brinkmann Transferpette™-8 50-200 μL) and 200 μL Flex tips (Brinkmann). The microtiter plate is covered and shaken for 25-30 min at room temperature and the enzymatic reaction is stopped by adding 50 μL/well of a 2.5 N HCl solution using an eight channel pipet (Brinkmann Transferpette™-8 50-200 μL) and 200L Flex tips (Brinkmann).

[5] = tested on: Caffeine-Ab; test: Competitive antigen ELISA, antibody specificity of caffeine-Ab; format: binding, rabbit; settings: ideal antibody specificity result hypothesized; 0 = no inhibition or no higher than 40% at 5×10^−3 M
Description: as §1

[6] = tested on: 1,7-DMX-Ab; test: Competitive antigen ELISA, antibody specificity of 1,7-DMX-Ab; format: binding, rabbit; settings: ideal antibody specificity result hypothesized; 0 = no inhibition or no higher than 40% at 5×10^−3 M
Description: as §1

[7] = tested on: AAMU-Ab; test: Competitive antigen ELISA, cross-reactivity of AAMU-Ab; format: binding, rabbit; settings: 0 = absence of inhibition or inhibition no higher than 40% at the highest concentration tested (5×10^−3 M)
Description: (§2) Buffers and water without additives are filtered through millipore filters and kept for 1 week. BSA, antibodies, Tween™ 20 and horse radish peroxidase conjugates are added to these buffers and water just prior to use. Urine samples are usually collected 4 hours after drinking a cup of coffee (instant or brewed with approximately 100 mg of caffeine per cup) and stored at −80° C. The urine samples are diluted 10 times with sodium phosphate buffer (620 mosm, pH 7.50) and are subsequently diluted with water to give concentrations of AAMU and 1X no higher than 3×10^−6 M in the ELISA. All the pipettings are done with an eight-channel pipette, except those of the antibody and sample solutions. Starting with the last well, 100 μL of a carbonate buffer (100 mM, pH 9.6) containing 2.5 μg mL-1 antibodies are added to each well. After 90 min. at room temperature, the wells are washed three times with […] of TPB: isotonic sodium phosphate buffer (310 mosm, pH 7.50) containing 0.05% Tween™ 20.
(§3) After the initial wash, unoccupied sites are blocked by incubation for 90 min. at room temperature with 100 μL TBP containing 3% BSA. The wells are washed four times with 100 μL TPB. […] The microplate is gently shaken with an orbital shaker at room temperature for 3-4 hours. The wells are washed three times with 100 μL TPB containing 1% BSA and three times with water containing 0.05% Tween ™ 20. To the washed plate is added 150 μL of a substrate buffer composed of citric acid (25 mM) and sodium phosphate dibasic buffer (50 mM, pH 5.0) containing 0.06% hydrogen peroxide and 0.04% o-phenylenediamine hydrochloride.
(§4) Buffers and water without additives were filtered through millipore filters and kept for 1 week. BSA, antibodies, Tween ™ 20 and horse radish peroxidase conjugates were added to these buffers and water just prior to use. Urine samples were usually collected 4 hours after drinking a cup of coffee (instant or brewed with approximately 100 mg of caffeine per cup) and stored at 80° C. They were diluted 10 times with sodium phosphate buffer (620 mosm, pH 7.50) and were subsequently diluted with water to give concentrations of AAMU and 1X no higher than 3×10^−6 M in the ELISA. All the pipettings were done with an eight-channel pipette, except those of the antibody and sample solutions. Starting with the last well, 100 μL of a carbonate buffer (100 mM, pH 9.6) containing 2.5 μg mL^−1 antibodies was pipetted. After 90 min. at room temperature, the wells were washed three times with 100 μL of TPB: isotonic sodium phosphate buffer (310 mosm, pH 7.50) containing 0.05% Tween™ 20.
(§5) After the initial wash, unoccupied sites were blocked by incubation for 90 min. at room temperature with 100 μL TBP containing 3% BSA. The wells were washed four times with 100 μL TPB. […] The microplate was gently shaken with an orbital shaker at room temperature for 3-4 hours. The wells were washed three times with 100 μL with TPB containing 1% BSA and three times with water containing 0.05% Tween™ 20. To the washed plate was added 150 μL of a substrate buffer composed of citric acid (25 mM) and sodium phosphate dibasic buffer (50 mM, pH 5.0) containing 0.06% hydrogen peroxide and 0.04% o-phenylenediamine hydrochloride. After 20 min. at room temperature with shaking, the reaction was stopped with 50 μL of 2.5 N HCl.
(§6) The cross reactivities of AAMU-Ab and 1X-Ab were tested using a wide variety of caffeine metabolites and structural analogs (Table 5 below).

[8] = tested on: 1X-Ab; test: Competitive antigen ELISA, cross-reactivity of 1X-Ab; format: binding, rabbit; settings: 0 = absence of inhibition or inhibition no higher than 40% at the highest concentration tested (5×10^−3 M)
Description: as §2, §3, §4, §5, §6

[9] = cited from earlier work; remark: listed apart in the source
[10] = cited from earlier work; remark: listed apart in the source

Sequence of μ-opiod receptor (P35372 whole entry): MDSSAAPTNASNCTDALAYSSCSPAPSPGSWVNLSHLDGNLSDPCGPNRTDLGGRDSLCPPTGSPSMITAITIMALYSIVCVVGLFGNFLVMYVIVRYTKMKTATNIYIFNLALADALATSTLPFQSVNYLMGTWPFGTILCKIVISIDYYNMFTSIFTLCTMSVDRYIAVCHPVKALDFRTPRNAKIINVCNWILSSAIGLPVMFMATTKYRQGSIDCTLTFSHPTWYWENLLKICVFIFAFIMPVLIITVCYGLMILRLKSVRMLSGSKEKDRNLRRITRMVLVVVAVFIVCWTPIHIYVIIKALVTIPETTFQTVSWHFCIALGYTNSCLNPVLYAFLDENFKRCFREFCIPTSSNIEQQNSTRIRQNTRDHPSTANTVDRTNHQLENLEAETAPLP

Row | Structure (SMILES) | % Cross-reaction 1,7-DMU-Ab [4] [%] | % Cross-reaction Caffeine-Ab [5] [%] | % Cross-reaction 1,7-DMX-Ab [6] [%] | % Cross-Reaction AAMU-Ab [7] | % Cross-Reaction 1X-Ab [8] [%] | other results
1 | COc1cccc(C2(O)CCCCC2CN(C)C)c1 (stereo not drawn) [Tramadol] | – | – | – | – | – | side effects vs placebo ([1]; extensive metabolizers): caused side effects significantly more frequently than placebo; analgesic effect ([1]; extensive vs poor metabolizers): better analgesic in extensive metabolizers as compared to poor metabolizers; affinity for the μ-opiod receptor, factor weaker than morphine [2]: ~6000
2 | CN(C)CCN1C(=O)c2cccc3cc(N)cc(c23)C1=O [Amonafide] | – | – | – | – | – | deaths ([3]; 300 mg/m^2, extremely fast acetylators): two women (both oriental) died from severe myelosuppression; response rate ([3]; individuals considered to be properly dosed): 30-50%; overall response rate ([3]; phase II trial, standard 300 mg/m^2 dose for all individuals): 18%
3 | Cc1nc2[nH]c(=O)[nH]c(=O)c2[nH]1 [8-Methyl Xanthine] | 0 | 0 | 0 | 0% | 0 | –
4 | Cn1c(=O)[nH]c(=O)c2[nH]cnc21 [3-Methyl Xanthine] | 0 | 0 | 0 | 0% | 0 | –
5 | Nc1ccc(S(=O)(=O)c2ccc(N)cc2)cc1 [dapsone] | – | – | – | – | – | adverse reactions to dapsone ([9]; fast acetylators): 17%; adverse reactions to dapsone ([9]; slow acetylators): 46%
6 | O=c1[nH]c(=O)c2[nH]cnc2[nH]1 [Xanthine] | 0 | 0 | 0 | 0^a % | 0 | –
7 | Cn1c(=O)c2[nH]cnc2n(C)c1=O [1,3-Dimethyl Xanthine (Theophylline), 1,3-Dimethyl Xanthine] | 0 | 0 | 0 | 0% | 0.2 | –
8 | CC(=O)Nc1c(N)n(C)c(=O)n(C)c1=O [5-Acetamino-6-amino-1,3-dimethyluracil] | 0 | 0 | 0 | 0% | 0 | –
9 | O=c1[nH]c(=O)c2[nH]c(=O)[nH]c2[nH]1 [Uric acid] | 0 | 0 | 0 | 0% | 0 | –
10 | COc1ccc2c(c1)[C@]13CCCC[C@@H]1[C@H](C2)N(C)CC3 [Dextromethorphan] | – | – | – | – | – | mean performance +/−SE ([10]; extensive metabolizers (EMs)): 95+/−0.5%; mean performance +/−SE ([10]; poor metabolizers (PMs), p<0.05): 86+/−6%
11 | Cn1cnc2c1c(=O)[nH]c(=O)n2C [3,7-Dimethyl Xanthine (Theobromine), 3,7-Dimethyl Xanthine] | 0 | 0 | 0 | 0% | 0 | –
